Results as given in paper PMC4649711, “In1-ghrelin splicing variant is overexpressed in pituitary adenomas and increases their aggressive features” (Scientific Reports, 2015).

What was measured:
PRL-omas = conditions: previous studies; cited from earlier work
Text: Conversely, In1-ghrelin peptides only elicited [Ca^2+]i responses in a negligible percentage of PRL-oma cells, which is in accordance with the lack of effect of these peptides in the modulation of PRL release. However, In1-40 but not In1-19 p ...

p-Akt = assay: Akt phosphorylation by western blot in GH-omas; type: cell-based, human; conditions: 100 nM, 8 minutes, p-Akt/total Akt vs vehicle (100%), n = 4
Experimental: (§1) Pituitary adenoma specimens were dispersed into single cells by enzymatic and mechanical disruption and cultured onto tissue culture plates in serum containing medium, as previously described. Briefly, pituitary samples were resected by endoscopic transsphenoidal surgery and transferred to sterile cold (4°C) culture medium (S-MEM, Gibco, Madrid, Spain) supplemented with 0.1% BSA, 0.01% L-glutamine, 1% antibiotic-antimycotic solution, and 2.5% HEPES. Samples were minced under sterile conditions into 1–2 mm^3 pieces. Some pieces were stored at −80°C for posterior RNA isolation and, when possible, the remaining tissue samples were washed and incubated in 30 mL S-MEM medium supplemented 0.3% trypsin (Beckson, Dickinson and Company, Sparks, MD, USA) in a spinner flask (Bellco Glass, Vineland, NJ, USA) for 2 h of gentle shaking at 37°C and then, incubation was continued for another 5 min in presence of 1 mg of DNAse I (Roche, Mannheim, Germany). Dispersed cells were decanted by centrifugation and then, by repeated aspiration into a smoothtipped glass Pasteur pipette. Cells suspensions were washed once in 4.5 g/L glucose containing DMEM medium (Gibco, Madrid, Spain) supplemented with 0.1% BSA, 0.01% L-glutamine, 1% antibiotic-antimycotic solution, and 2.5% HEPES. […]

AtT-20 cell line [1] = assay: cell viability of AtT-20 cell line; type: cell-based, mouse; conditions: alamar-blue, 3–5 independent experiments, IGF-1 and Paclitaxel as controls
Experimental: (§2) The mouse corticotroph pituitary derived cell line AtT-20/D16v-F2 (ATCC® CRL-1795) was cultured and maintained in Dulbecco's Modified Eagle's Medium (DMEM) complemented with 10% FBS, 100 U/ml penicillin/streptomycin, 0.024 M of 2-(4(2-hydroxyethyl)-1-piperazine)-ethane sulfonic acid (HEPES), and maintained at 37°C and 5% CO2, under sterile conditions. CHO-K1 cell line(ATCC® CCL-61) expressing recombinant human GHSR1a (GenBank accession number U60179) or GHSR1b (GenBank accession number U60181) were cultured and maintained in Ham's F12 media (Corning #10-080-CV) supplemented with 10% FBS, 2 mM L-Glutamine and 0.4 mg/mL Geneticin.
As previously reported, cell viability was estimated using alamar-blue reagent (10,000 cells/well-plate; Biosource International, Camarillo, CA, USA)[30][50][52]. Briefly, cells were serum-starved for 12–16 h before the measurements and treated with serum-free medium containing 10% alamar-blue for 3 h. Reduction of alamar-blue reagent was quantified exciting at 560 nm and reading at 590 nm using the FlexStation III system (Molecular Devices, Sunnyvale, CA, USA). Subsequently, media was replaced by serum-containing alamar-blue free medium and incubated for additional 24–72 h, measuring the alamar-blue reduction every 24 h. […]

AtT-20 cell line [2] = assay: ACTH secretion from AtT-20 cell line; type: cell-based, mouse; conditions: 4 h, 3–5 independent experiments
Experimental: as §2
(§3) To examine the effects of ghrelin system components (4- and/or 24 h-incubation) on pituitary hormone release from primary pituitary adenoma and/or AtT-20 cell line, 100,000–200,000 cell/well were used. As previously reported, hormone concentrations were measured in the culture media derived from human samples according to the pituitary adenoma type using commercial ELISAs [growth hormone, GH; adrenocorticotropin, ACTH; and prolactin, PRL (reference numbers: EIA-3552, EIA-3647 and EIA-1291, respectively; DRG, Mountainside, NJ, USA)] following the manufacturer's instructions. All the information regarding specificity, detectability, and reproducibility for each of the assays can be accessed at the web site of the company.

GH-omas = assay: apoptotic rate in GH-omas; type: cell-based, human; conditions: 100 nM, 12–14 h, Annexin V/Propidium Iodide, flow cytometry, n = 3
Experimental: as §1

ACTH-omas = assay: ACTH secretion from ACTH-oma primary cultures; type: cell-based, human; conditions: 100 nM; 24 h; ELISA; % of vehicle; n = 3–9
Experimental: Pituitary adenoma specimens were dispersed into single cells by enzymatic and mechanical disruption and cultured onto tissue culture plates in serum containing medium, as previously described. Briefly, pituitary samples were resected by endoscopic transsphenoidal surgery and transferred to sterile cold (4°C) culture medium (S-MEM, Gibco, Madrid, Spain) supplemented with 0.1% BSA, 0.01% L-glutamine, 1% antibiotic-antimycotic solution, and 2.5% HEPES. Samples were minced under sterile conditions into 1–2 mm^3 pieces. […]
as §3, with “All the information regarding specificity, detectability, and reproducibility for each of the assays can be accessed at the web site of the company.” left out

CCCCCCCC(=O)OC[C@H](NC(=O)[C@H](CO)NC(=O)CN)C(=O)N[C@@H](Cc1ccccc1)C(=O)N[C@@H](CC(C)C)C(=O)N[C@@H](CO)C(=O)N1CCC[C@H]1C(=O)N[C@@H](CCC(=O)O)C(=O)N[C@@H](Cc1c[nH]cn1)C(=O)N[C@@H](CCC(N)=O)C(=O)N[C@@H](CCCNC(=N)N)C(=O)N[C@H](C(=O)N[C@@H](CCC(N)=O)C(=O)N[C@@H](CCC(N)=O)C(=O)N[C@@H](CCCNC(=N)N)C(=O)N[C@@H](CCCCN)C(=O)N[C@@H](CCC(=O)O)C(=O)N[C@@H](CO)C(=O)N[C@@H](CCCCN)C(=O)N[C@@H](CCCCN)C(=O)N1CCC[C@H]1C(=O)N1CCC[C@H]1C(=O)N[C@@H](C)C(=O)N[C@@H](CCCCN)C(=O)N[C@@H](CC(C)C)C(=O)N[C@@H](CCC(N)=O)C(=O)N1CCC[C@H]1C(=O)N[C@@H](CCCNC(=N)N)C(=O)O)C(C)C [AG]
PRL secretion (PRL-omas): increases PRL secretion | p-Akt levels (p-Akt): increased both, p-ERK1/2 as well as p-Akt, levels | cell viability (AtT-20 cell line [1]): did not alter cell viability | basal ACTH release (AtT-20 cell line [2]): did not significantly alter basal ACTH release | apoptotic rate (GH-omas): did not alter apoptotic rate | ACTH secretion (ACTH-omas): significantly increased ACTH secretion
